Values quoted from earlier work, collected in patent US10258574B2, “Method of preparing itraconazole preparation” (CHANGZHOU PHARMACEUTICAL FACTORY CO., LTD., priority 2015, dated 2019).

Conditions: rat; clinical relevance yet unclear

For 2-hydroxypropyl-β-cyclodextrin, the carcinogenicity finding is listed as “cause pancreatic cancer”.
